# Laboratory results taken from patent publication US7335632B2, “Beta-secretase inhibitors and methods of use thereof” (CoMentis, Inc., priority 2001, dated 2008).
# Where two headings read alike, the source gives them in different places.
# Legend:
# Format in all cases: biochemical
# memapsin 2 = memapsin 2 (Homo sapiens, UniProt P56817); test: Inhibition of memapsin 2 beta-secretase activity toward fluorogenic substrate FS-2; settings: pH 4, 37° C., 20 minutes pre-incubation, substrate FS-2, tight-binding model; read-out: M2 Ki
# Experimental: Potency of compounds were determined by measurement of their inhibition of memapsin 2 activity toward a fluorescent substrate. […] Briefly, assays were performed at pH 4, 37° C., by pre-incubation of memapsin 2 enzyme with compound for 20 minutes. Activity measure was initiated by addition of a fluorogenic substrate FS-2 (Bachem Americas, Torrance, Calif.). Fluorescent signal increase over time was measured as a rate of hydrolysis of the peptide substrate.
# Cathepsin D = Cathepsin D (Homo sapiens, UniProt P07339); test: Inhibition of cathepsin D activity (substrate peptide […], MALDI-TOF); settings: pH 4.1, 37 degrees C., read-out: Cath D Ki
# memapsin 1 = target: T1, memapsin 1 (Homo sapiens, UniProt Q9Y5Z0); test: Inhibition of memapsin 1 beta-secretase activity (substrate peptide […], MALDI-TOF); settings: pH 4.1, 37 degrees C., substrate NH3-ELDLAVEFWHDR-CO2, MALDI-TOF; read-out: M1 Ki
# T1 sequence (Q9Y5Z0 63-518): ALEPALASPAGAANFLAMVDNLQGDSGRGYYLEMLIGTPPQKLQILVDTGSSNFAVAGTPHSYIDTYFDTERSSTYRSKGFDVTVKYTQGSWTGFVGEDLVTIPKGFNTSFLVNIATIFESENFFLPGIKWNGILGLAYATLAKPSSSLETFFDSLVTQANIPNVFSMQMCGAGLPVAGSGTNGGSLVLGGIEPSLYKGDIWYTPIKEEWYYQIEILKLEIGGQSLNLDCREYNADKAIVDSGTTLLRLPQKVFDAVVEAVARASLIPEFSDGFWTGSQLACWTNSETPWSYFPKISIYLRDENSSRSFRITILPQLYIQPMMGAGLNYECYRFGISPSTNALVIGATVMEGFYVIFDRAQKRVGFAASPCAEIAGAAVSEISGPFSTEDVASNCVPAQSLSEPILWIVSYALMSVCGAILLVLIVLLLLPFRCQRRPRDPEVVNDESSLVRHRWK
# [1] = substrate NH3-[…]-CO2, MALDI-TOF
# Cathepsin D, sequence (P07339 65-412, species assumed): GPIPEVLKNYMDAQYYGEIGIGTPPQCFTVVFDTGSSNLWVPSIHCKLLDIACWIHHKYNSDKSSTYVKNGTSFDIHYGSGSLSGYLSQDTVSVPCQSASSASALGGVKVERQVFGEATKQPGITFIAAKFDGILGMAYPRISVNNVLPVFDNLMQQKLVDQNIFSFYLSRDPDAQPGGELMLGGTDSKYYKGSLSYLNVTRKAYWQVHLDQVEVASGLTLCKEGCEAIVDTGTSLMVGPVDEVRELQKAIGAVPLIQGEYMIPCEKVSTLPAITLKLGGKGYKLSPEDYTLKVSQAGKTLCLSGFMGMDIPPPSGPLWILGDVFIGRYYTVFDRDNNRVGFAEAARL
# memapsin 2, sequence (P56817 46-501): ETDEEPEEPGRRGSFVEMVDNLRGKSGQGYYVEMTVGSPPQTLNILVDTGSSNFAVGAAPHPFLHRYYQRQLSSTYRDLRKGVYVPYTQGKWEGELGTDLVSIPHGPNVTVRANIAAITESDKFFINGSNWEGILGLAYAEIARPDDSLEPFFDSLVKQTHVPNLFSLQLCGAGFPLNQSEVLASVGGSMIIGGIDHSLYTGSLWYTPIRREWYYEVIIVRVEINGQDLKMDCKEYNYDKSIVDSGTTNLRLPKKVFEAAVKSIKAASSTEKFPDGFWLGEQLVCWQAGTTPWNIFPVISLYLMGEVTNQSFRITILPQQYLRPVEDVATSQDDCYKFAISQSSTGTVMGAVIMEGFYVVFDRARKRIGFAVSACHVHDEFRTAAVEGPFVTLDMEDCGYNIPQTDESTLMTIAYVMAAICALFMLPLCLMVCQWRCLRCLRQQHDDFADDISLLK
Compound,Ki (memapsin 2),Ki (Cathepsin D; [1]),Ki (memapsin 1),"Ki (Cathepsin D; substrate NH3-ELDLAVEFWHDR-CO2, MALDI-TOF)"
CSC[C@H](NC(=O)OCc1nccn1C)C(=O)N[C@@H](CC(C)C)[C@@H](O)C[C@@H](C)C(=O)N[C@@H](C(=O)NCC(C)C)C(C)C [Structure 6],> 1000 nM,100 to 1000 nM,< 100 nM,
C=CCSC[C@H](NC(=O)CCn1nc(C)cc1C)C(=O)N[C@@H](CC(C)C)[C@@H](O)C[C@@H](C)C(=O)N[C@H](C(=O)NCC(C)C)C(C)C [Structure 10],< 100 nM,< 100 nM,< 100 nM,
CSC[C@H](NC(=O)CC(C)n1nc(C)cc1C)C(=O)N[C@@H](CC(C)C)[C@@H](O)C[C@@H](C)C(=O)N[C@H](C(=O)NCC(C)C)C(C)C (stereo partly drawn) [Structure 11],> 1000 nM,< 100 nM,100 to 1000 nM,
COCSC[C@H](NC(=O)CCn1nc(C)cc1C)C(=O)N[C@H](CC(C)C)[C@@H](O)C[C@@H](C)C(=O)N[C@@H](C(=O)NCC(C)C)C(C)C [Structure 14],< 100 nM,< 100 nM,< 100 nM,
COCS(=O)(=O)C[C@H](NC(=O)CCn1nc(C)cc1C)C(=O)N[C@H](CC(C)C)[C@@H](O)C[C@@H](C)C(=O)N[C@@H](C(=O)NCC(C)C)C(C)C [Structure 15],100 to 1000 nM,100 to 1000 nM,100 to 1000 nM,
CC(C)CNC(=O)[C@H](NC(=O)[C@H](C)C[C@H](O)[C@@H](CC(C)C)NC(=O)[C@H](CS(C)(=O)=O)NC(=O)OCc1ccn(C)n1)C(C)C [Structure 20],100 to 1000 nM,100 to 1000 nM,100 to 1000 nM,
CSC[C@H](NC(=O)OCc1csc(C)n1)C(=O)N[C@H](CC(C)C)[C@@H](O)C[C@@H](C)C(=O)N[C@@H](C(=O)NCC(C)C)C(C)C [Structure 21],100 to 1000 nM,< 100 nM,100 to 1000 nM,
COCCOCSC[C@H](NC(=O)OCc1nc(C)cs1)C(=O)N[C@H](CC(C)C)[C@@H](O)C[C@@H](C)C(=O)N[C@@H](C(=O)NCC(C)C)C(C)C [Structure 23],< 100 nM,< 100 nM,100 to 1000 nM,
CCS(=O)(=O)C[C@H](NC(=O)OCc1nc(C)c[s+]1[O-])C(=O)N[C@H](CC(C)C)[C@@H](O)C[C@@H](C)C(=O)N[C@@H](C(=O)NCC(C)C)C(C)C (stereo partly drawn) [Structure 24],> 1000 nM,< 100 nM,100 to 1000 nM,
Cc1nc(COC(=O)N[C@@H](CS(C)(=O)=O)C(=O)N[C@H](CC(C)C)[C@@H](O)C[C@@H](C)C(=O)N[C@@H](C(=O)NCC(C)C)C(C)C)cs1 [Structure 25],100 to 1000 nM,100 to 1000 nM,< 100 nM,
Cc1nc(COC(=O)N[C@@H](CS(C)(=O)=O)C(=O)N[C@H](CC(C)C)[C@@H](O)C[C@@H](C)C(=O)N[C@@H](C(=O)NCC(C)C)C(C)C)cs1 [Structure 26],,,100 to 1000 nM,
CSC[C@H](NC(=O)OCc1coc(C)n1)C(=O)N[C@H](CC(C)C)[C@@H](O)C[C@@H](C)C(=O)N[C@@H](C(=O)NCC(C)C)C(C)C [Structure 27],100 to 1000 nM,< 100 nM,100 to 1000 nM,
Cc1nc(COC(=O)N[C@@H](CS(C)(=O)=O)C(=O)N[C@H](CC(C)C)[C@@H](O)C[C@@H](C)C(=O)N[C@@H](C(=O)NCC(C)C)C(C)C)co1 [Structure 28],100 to 1000 nM,100 to 1000 nM,100 to 1000 nM,
Cc1csc(COC(=O)N[C@@H](CS(C)(=O)=O)C(=O)N[C@H](CC(C)C)[C@@H](O)C[C@@H](C)C(=O)N[C@@H](C(=O)NCC(C)C)C2CCCCC2)n1 [Structure 33],100 to 1000 nM,> 1000 nM,100 to 1000 nM,
CSC[C@H](NC(=O)CCc1nc(C)oc1C)C(=O)N[C@H](CC(C)C)[C@@H](O)C[C@@H](C)C(=O)N[C@@H](C(=O)NCC(C)C)C(C)C [Structure 41],< 100 nM,< 100 nM,100 to 1000 nM,
Cc1nc(COC(=O)N[C@@H](CS(C)(=O)=O)C(=O)N[C@H](CC(C)C)[C@@H](O)C[C@@H](C)C(=O)NCC(C)C)c(C)o1 [Structure 42],> 1000 nM,,> 1000 nM,
Cc1nc(CCC(=O)N[C@@H](CS(C)(=O)=O)C(=O)N[C@H](CC(C)C)[C@@H](O)C[C@@H](C)C(=O)N[C@@H](C(=O)NCC(C)C)C(C)C)c(C)o1 [Structure 44],< 100 nM,100 to 1000 nM,< 100 nM,
Cc1csc(COC(=O)N[C@@H](CS(C)(=O)=O)C(=O)N[C@H](CC(C)C)[C@@H](O)C[C@@H](C)C(=O)N[C@@H](C(=O)NCc2ccncc2)C(C)C)n1 [Structure 45],100 to 1000 nM,100 to 1000 nM,> 1000 nM,
Cc1nc(COC(=O)N[C@@H](CS(C)(=O)=O)C(=O)N[C@H](Cc2ccccc2)[C@@H](O)C[C@@H](C)C(=O)N[C@@H](C(=O)NCC(C)C)C(C)C)c(C)o1 [Structure 51],< 100 nM,< 100 nM,< 100 nM,
CSC[C@H](NC(=O)OCc1nc(C)cs1)C(=O)N[C@H](Cc1ccccc1)[C@@H](O)C[C@@H](C)C(=O)N[C@@H](C(=O)NCC(C)C)C(C)C [Structure 52],< 100 nM,< 100 nM,100 to 1000 nM,
CSC[C@H](NC(=O)OCc1noc(C)n1)C(=O)N[C@H](CC(C)C)[C@@H](O)C[C@@H](C)C(=O)N[C@@H](C(=O)NCC(C)C)C(C)C [Structure 61],100 to 1000 nM,< 100 nM,> 1000 nM,
Cc1nc(COC(=O)N[C@@H](CS(C)(=O)=O)C(=O)N[C@H](CC(C)C)[C@@H](O)C[C@@H](C)C(=O)N[C@@H](C(=O)NCC(C)C)C(C)C)no1 [Structure 62],> 1000 nM,100 to 1000 nM,> 1000 nM,
Cc1csc(COC(=O)N[C@@H](CS(C)(=O)=O)C(=O)N[C@@H](CC(C)C)[C@@H](O)C[C@@H](C)C(=O)NN(C)S(C)(=O)=O)n1 [Structure 63],> 1000 nM,> 1000 nM,> 1000 nM,
CSC[C@H](NC(=O)[C@@H](C)Cc1nc(C)cs1)C(=O)N[C@H](CC(C)C)[C@@H](O)C[C@@H](C)C(=O)N[C@@H](C(=O)NCC(C)C)C(C)C [Structure 65],< 100 nM,,< 100 nM,< 100 nM
Cc1noc(COC(=O)N[C@@H](CS(C)(=O)=O)C(=O)N[C@H](CC(C)C)[C@@H](O)C[C@@H](C)C(=O)N[C@@H](C(=O)NCC(C)C)C(C)C)n1 [Structure 69],100 to 1000 nM,100 to 1000 nM,100 to 1000 nM,
CCc1nc(COC(=O)N[C@@H](CSC)C(=O)N[C@H](CC(C)C)[C@@H](O)C[C@@H](C)C(=O)N[C@@H](C(=O)NCC(C)C)C(C)C)c(C)s1 [Structure 70],< 100 nM,< 100 nM,< 100 nM,
CSC[C@H](NC(=O)OCc1nc(C)cs1)C(=O)N[C@H](CC(C)C)[C@@H](O)C[C@@H](C)C(=O)NCC1CCC(C(=O)OCc2ccccc2)CC1 (stereo partly drawn) [Structure 76],> 1000 nM,< 100 nM,> 1000 nM,
CSC[C@H](NC(=O)OCc1nc(C)cs1)C(=O)N[C@H](CC(C)C)[C@@H](O)C[C@@H](C)C(=O)N[C@@H](c1ncc[nH]1)C(C)C [Structure 80],> 1000 nM,100 to 1000 nM,> 1000 nM,
CSC[C@H](NC(=O)OCc1nc(C)cs1)C(=O)N[C@H](CC(C)C)[C@@H](O)C[C@@H](C)C(=O)N[C@H](CN(C)C)C(=O)NC(C)C [Structure 81],> 1000 nM,> 1000 nM,> 1000 nM,
Cc1csc(COC(=O)N[C@@H](CS(C)(=O)=O)C(=O)N[C@H](CC(C)C)[C@@H](O)C[C@@H](C)C(=O)NCC2CCC(C(=O)OCc3ccccc3)CC2)n1 (stereo partly drawn) [Structure 82],> 1000 nM,< 100 nM,> 1000 nM,
